We go through 26 compounds from article PMC8286840, “Identifying SARS-CoV-2 antiviral compounds by screening for small molecule inhibitors of Nsp3 papain-like protease” (Biochemical Journal, 2021).

Where a name gives a salt, the structure may show the parent alone. Read-outs that look alike come from different tables or passages of the source. Where a SMILES comes first, the peptide text is derived from it. [ ]: non-standard residue; d: D form. Nle = CCCC[C@H](N)C(=O)O

The target in experiment [1] is T1, SARS-CoV-2 PLpro (nsp3 1564–1878) (Severe acute respiratory syndrome coronavirus 2, UniProt P0DTD1). The experiment in a line: biochemical. Further details: FRET-quenched peptide (Pro3) cleavage by PLpro, 10 min pre-incubation, slope over 20 min, normalised to no-compound control. The following applies: low concentration screen, read-out: % of control remaining.
The target of experiment [2] is T1, SARS-CoV-2 PLpro (nsp3 1564–1878). The experiment in a line: biochemical. Also on record: FRET-quenched peptide (Pro3) cleavage by PLpro, 10 min pre-incubation, slope over 20 min, normalised to no-compound control. The conditions noted are these: high concentration screen, read-out: % of control remaining.

Turning to `CC1CNc2c(cccc2S(=O)(=O)N[C@@H](CCCNC(=N)N)C(=O)N2CC[C@@H](C)C[C@@H]2C(=O)O)C1` (stereo partly drawn) [(2R,4R)-1-((2S)-5-{[amino(imino)methyl]amino}-2-{[(3-methyl-1,2,3,4-tetrahydro-8-quinolinyl)sulfonyl]amino}pentanoyl)-4-methyl-2-piperidinecarboxylic acid hydrate], the remaining activity at 1.25 µM in experiment [1] (Well no.=5613) turned out to be 96%. Moreover, in experiment [2] (Well no.=5613), the remaining activity at 3.75 µM was 96.5%.
Turning to `CCCC[C@@H](C=O)NC(=O)[C@H](CC(C)C)NC(=O)[C@H](CC(C)C)NC(C)=O` [(2S)-2-(acetylamino)-N-[(1S)-1-({[(1S)-1-formylpentyl]amino}carbonyl)-3-methylbutyl]-4-methylpentanamide] (Ac-Leu-Leu-[Nle]-aldehyde), in experiment [1] (Well no.=5774), the remaining activity at 1.25 µM amounted to 95.7%. The remaining activity at 3.75 µM in experiment [2] (Well no.=5774) came to 95.3%.
For `CC(C)C[C@H](NC(=O)[C@@H](O)[C@H](N)Cc1ccc([N+](=O)[O-])cc1)C(=O)O` [(2S,3R)-3-Amino-2-hydroxy-4-(4-nitrophenyl)butanoyl-L-leucine hydrochloride], the remaining activity at 1.25 µM in experiment [1] (Well no.=67) worked out at 106%. The remaining activity at 3.75 µM in experiment [2] (Well no.=67) is 104%.
In the case of `CCOC(=O)[C@H](CCc1ccccc1)N[C@@H](C)C(=O)N1CCC[C@H]1C(=O)O` [(2Z)-2-butenedioic acid compound with (2S)-1-((2S)-2-{[(1S)-1-(ethoxycarbonyl)-3-phenylpropyl]amino}propanoyl)-2-pyrrolidinecarboxylic acid (1:1)], the remaining activity at 1.25 µM in experiment [1] (Well no.=5659) was 102%. Also, in experiment [2] (Well no.=5659), the remaining activity at 3.75 µM came out at 101%.
For `C/C(Nc1ccccc1)=C1\C(=O)NC(Cc2ccccc2)C1=O` (stereo not drawn) [(3E)-3-(1-anilinoethylidene)-5-benzyl-2,4-pyrrolidinedione], the remaining activity at 1.25 µM in experiment [1] (Well no.=5686) worked out at 96.9%. Besides, the remaining activity at 3.75 µM in experiment [2] (Well no.=5686) amounted to 97.8%.
As to `COc1cc2c(cc1OC)[C@H]1CC(=O)[C@H](CC(C)C)CN1CC2` [(3R,11bR)-3-isobutyl-9,10-dimethoxy-1,3,4,6,7,11b-hexahydro-2H-pyrido[2,1-a]isoquinolin-2-one], the remaining activity at 1.25 µM in experiment [1] (Well no.=5582) came out at 93.7%. Moreover, the remaining activity at 3.75 µM in experiment [2] (Well no.=5582) came out at 98.6%.
Turning to `C=C[C@]1(C)C[C@@H](OC(=O)CO)[C@]2(C)[C@H](C)CC[C@]3(CCC(=O)[C@H]32)[C@@H](C)[C@@H]1O` [(3aR,4R,5R,7S,8S,9R,9aS,12R)-8-hydroxy-4,7,9,12-tetramethyl-3-oxo-7-vinyldecahydro-4,9a-propanocyclopenta[8]annulen-5-yl 2-hydroxyacetate], the remaining activity at 1.25 µM in experiment [1] (Well no.=5764) stood at 97.1%. Besides, the remaining activity at 3.75 µM in experiment [2] (Well no.=5764) is 97.7%.
In the case of `CCCCCCCCCCCC1N[C@H](C(=O)O)CS1` (stereo partly drawn) [(4R) - 2-Undecyl-4-thiazolidinecarboxylic acid], the remaining activity at 1.25 µM in experiment [1] (Well no.=5484) worked out at 104%. Moreover, the remaining activity at 3.75 µM in experiment [2] (Well no.=5484) turned out to be 106%.
As to `Cc1ccc(CN2C(=O)S/C(=C\c3ccc(Cl)cc3)C2=O)cc1` [(5Z)-5-(4-chlorobenzylidene)-3-(4-methylbenzyl)-1,3-thiazolidine-2,4-dione], the remaining activity at 1.25 µM in experiment [1] (Well no.=6027) turned out to be 94.6%. For the same compound, the remaining activity at 3.75 µM in experiment [2] (Well no.=6027) worked out at 94.7%.
Take `CC(O)C(O)C1CNc2nc(N)[nH]c(=O)c2N1` [(6R)-5,6,7,8-Tetrahydro-L-biopterin hydrochloride]: in experiment [1] (Well no.=1383), the remaining activity at 1.25 µM was 101%. The remaining activity at 3.75 µM in experiment [2] (Well no.=1383) came out at 102%.
As to `C=C1C=C(C)n2nc(CC3C(=O)C[C@](CCc4cc(CC)nc(CC)c4)(C4CCCC4)OC3=O)nc2N1` (stereo partly drawn) [(6R)-6-cyclopentyl-6-(2-(2,6-diethylpyridin-4-yl)ethyl)-3-((7-methyl-5-methylene-4,5-dihydro-[1,2,4]triazolo[1,5-a]pyrimidin-2-yl)methyl)dihydro-2H-pyran-2,4(3H)-dione], the remaining activity at 1.25 µM in experiment [1] (Well no.=5607) was determined as 102%. Besides, in experiment [2] (Well no.=5607), the remaining activity at 3.75 µM is 105%.
Consider `CCCCCC/C=C/C=C\CCCCCCCC(=O)O` [(9Z,11E)-Octadecadienoic acid], for which the remaining activity at 1.25 µM in experiment [1] (Well no.=4354) stood at 106%. In addition, in experiment [2] (Well no.=4354), the remaining activity at 3.75 µM came to 106%.
Consider `CC(C)=CCC[C@](C)(O)[C@H]1CC[C@]2(C)[C@@H]1[C@H](O)C[C@@H]1[C@@]3(C)CC[C@H](O)C(C)(C)[C@@H]3CC[C@]12C` [(20S)-Protopanaxadiol], for which, in experiment [1] (Well no.=6300), the remaining activity at 1.25 µM was 106%. In addition, the remaining activity at 3.75 µM in experiment [2] (Well no.=6300) is 99.5%.
Turning to `CC(C)=CCC[C@](C)(O)[C@H]1CC[C@]2(C)[C@@H]1[C@H](O)C[C@@H]1[C@@]3(C)CC[C@H](O)C(C)(C)[C@@H]3[C@@H](O)C[C@]12C` [(20S)-Protopanaxatriol], in experiment [1] (Well no.=8387), the remaining activity at 1.25 µM was 96.6%. Further, the remaining activity at 3.75 µM in experiment [2] (Well no.=8387) is 91.4%.
With `CC(C)CCC[C@H](C)[C@H]1CC[C@H]2[C@@H]3CCC4=CC(=NO)CC[C@]4(C)[C@H]3CC[C@]12C` [(20S)-cholest-4-en-3-one oxime], the remaining activity at 1.25 µM in experiment [1] (Well no.=5966) came to 94.3%. Also, the remaining activity at 3.75 µM in experiment [2] (Well no.=5966) was 96.1%.
As for `CN1CCc2cc3c(cc2[C@H]1[C@@H]1OC(=O)c2c1ccc1c2OCO1)OCO3` [(+)-Bicuculline], the figures for the remaining activity at 1.25 µM in experiment [1] (Well no.=369) and in experiment [1] (Well no.=3679) were 103% and 99.7%, respectively. Also, the values for the remaining activity at 3.75 µM in experiment [2] (Well no.=369) and in experiment [2] (Well no.=3679) were 98.1% and 99.2%, respectively.
For `COc1ccc2c(c1O)-c1c3c(cc4c1[C@H](C2)N(C)CC4)OCO3` [(+)-Bulbocapnine hydrochloride], the remaining activity at 1.25 µM in experiment [1] (Well no.=494) came to 102%. Moreover, the remaining activity at 3.75 µM in experiment [2] (Well no.=494) turned out to be 102%.
Consider `CC(C)(C)[C@]1(O)CCN2C[C@H]3c4ccccc4CCc4cccc(c43)[C@@H]2C1` [(+)-Butaclamol hydrochloride], for which the remaining activity at 1.25 µM in experiment [1] (Well no.=732) turned out to be 98.3%. The remaining activity at 3.75 µM in experiment [2] (Well no.=732) is 98.3%.
Turning to `Oc1cc(O)c2c(c1)O[C@H](c1ccc(O)c(O)c1)[C@@H](O)C2` [(+)-Catechin Hydrate], in experiment [1] (Well no.=283), the remaining activity at 1.25 µM turned out to be 98%. Further, the remaining activity at 3.75 µM in experiment [2] (Well no.=283) turned out to be 99.7%.
Regarding `CN1Cc2c(ccc3c2OCO3)[C@@H]2[C@H]1c1cc3c(cc1C[C@@H]2O)OCO3` [(+)-Chelidonine], the remaining activity at 1.25 µM in experiment [1] (Well no.=3439) was found to be 95.5%. In addition, the remaining activity at 3.75 µM in experiment [2] (Well no.=3439) turned out to be 97.2%.
With `C=C[C@H]1CN2CC[C@H]1C[C@@H]2[C@@H](O)c1ccnc2ccccc12` [(+)-Cinchonine], the remaining activity at 1.25 µM in experiment [1] (Well no.=3198) amounted to 109%. Further, the remaining activity at 3.75 µM in experiment [2] (Well no.=3198) was 107%.
`C[C@@H]1[C@@H]2Cc3ccc(O)cc3[C@@]1(C)CCN2CC1CC1` [(+)-Cyclazocine]: the remaining activity at 1.25 µM in experiment [1] (Well no.=583) stood at 72.1%. Further, the remaining activity at 3.75 µM in experiment [2] (Well no.=583) amounted to 98.8%.
`C=C1C[C@]23C[C@@]1(O)CC[C@H]2[C@@]12C=C[C@H](O)[C@@](C)(C(=O)O1)[C@H]2[C@@H]3C(=O)O` [(+)-Gibberellic acid]: the remaining activity at 1.25 µM in experiment [1] (Well no.=3212) amounted to 103%. Moreover, the remaining activity at 3.75 µM in experiment [2] (Well no.=3212) amounted to 105%.
As for `COC1=CC(=O)C[C@@H](C)[C@]12Oc1c(Cl)c(OC)cc(OC)c1C2=O` [(+)-Griseofulvin], the remaining activity at 1.25 µM in experiment [1] (Well no.=3354) was 88.9%. Moreover, the remaining activity at 3.75 µM in experiment [2] (Well no.=3354) worked out at 90.2%.
For the compound `C[C@@H]1OC(=O)[C@H]2C[C@H]3CCCC[C@@H]3[C@@H](/C=C/[C@H]3CCC[C@H](C)N3C)[C@@H]12` [(+)-Himbacine], the remaining activity at 1.25 µM in experiment [1] (Well no.=706) was found to be 99.2%. Also, the remaining activity at 3.75 µM in experiment [2] (Well no.=706) was 98.4%.
For `COc1ccc2c(c1OC)C(=O)O[C@H]2[C@@H]1c2cc3c(cc2CCN1C)OCO3` [(+)-Hydrastine], in experiment [1] (Well no.=614), the remaining activity at 1.25 µM was 96.4%. Also, the remaining activity at 3.75 µM in experiment [2] (Well no.=614) was determined as 97.7%.
